# Target: Metabotropic glutamate receptor 5 (Homo sapiens, UniProt P41594)
# Assay: Intracellular Ca2+ Mobilization Assay: A monoclonal HEK-293 cell line stably transfected with a cDNA encoding for the human mGlu5a receptor was generated; for the work with mGlu5 Positive Allosteric Modulators (PAMs), a cell line with low receptor expression levels and low constitutive receptor activity was selected to allow the differentiation of agonistic versus PAM activity. Cells were cultured according to standard protocols (Freshney, 2000) in Dulbecco's Modified Eagle Medium with high glucose supplemented with 1 mM glutamine, 10% (vol/vol) heat-inactivated bovine calf serum, Penicillin/Streptomycin, 50 μg/ml hygromycin and 15 μg/ml blasticidin (all cell culture reagents and antibiotics from Invitrogen, Basel, Switzerland). bout 24 hrs before an experiment, 5×10^4 cells/well were seeded in poly-D-lysine coated, black/clear-bottomed 96-well plates. The cells were loaded with 2.5 μM Fluo-4AM in loading buffer (1×HBSS, 20 mM HEPES) for 1 hr at 37 °C. and washed five times with loading buffer. The cells were transferred into a Functional Drug Screening System 7000 (Hamamatsu, Paris, France), and 11 half logarithmic serial dilutions of test compound at 37 °C. were added and the cells were incubated for 10-30 min. with on-line recording of fluorescence. […]
# Assay type: cell-based, HEK293
# Metabotropic glutamate receptor 5, sequence (P41594 whole entry): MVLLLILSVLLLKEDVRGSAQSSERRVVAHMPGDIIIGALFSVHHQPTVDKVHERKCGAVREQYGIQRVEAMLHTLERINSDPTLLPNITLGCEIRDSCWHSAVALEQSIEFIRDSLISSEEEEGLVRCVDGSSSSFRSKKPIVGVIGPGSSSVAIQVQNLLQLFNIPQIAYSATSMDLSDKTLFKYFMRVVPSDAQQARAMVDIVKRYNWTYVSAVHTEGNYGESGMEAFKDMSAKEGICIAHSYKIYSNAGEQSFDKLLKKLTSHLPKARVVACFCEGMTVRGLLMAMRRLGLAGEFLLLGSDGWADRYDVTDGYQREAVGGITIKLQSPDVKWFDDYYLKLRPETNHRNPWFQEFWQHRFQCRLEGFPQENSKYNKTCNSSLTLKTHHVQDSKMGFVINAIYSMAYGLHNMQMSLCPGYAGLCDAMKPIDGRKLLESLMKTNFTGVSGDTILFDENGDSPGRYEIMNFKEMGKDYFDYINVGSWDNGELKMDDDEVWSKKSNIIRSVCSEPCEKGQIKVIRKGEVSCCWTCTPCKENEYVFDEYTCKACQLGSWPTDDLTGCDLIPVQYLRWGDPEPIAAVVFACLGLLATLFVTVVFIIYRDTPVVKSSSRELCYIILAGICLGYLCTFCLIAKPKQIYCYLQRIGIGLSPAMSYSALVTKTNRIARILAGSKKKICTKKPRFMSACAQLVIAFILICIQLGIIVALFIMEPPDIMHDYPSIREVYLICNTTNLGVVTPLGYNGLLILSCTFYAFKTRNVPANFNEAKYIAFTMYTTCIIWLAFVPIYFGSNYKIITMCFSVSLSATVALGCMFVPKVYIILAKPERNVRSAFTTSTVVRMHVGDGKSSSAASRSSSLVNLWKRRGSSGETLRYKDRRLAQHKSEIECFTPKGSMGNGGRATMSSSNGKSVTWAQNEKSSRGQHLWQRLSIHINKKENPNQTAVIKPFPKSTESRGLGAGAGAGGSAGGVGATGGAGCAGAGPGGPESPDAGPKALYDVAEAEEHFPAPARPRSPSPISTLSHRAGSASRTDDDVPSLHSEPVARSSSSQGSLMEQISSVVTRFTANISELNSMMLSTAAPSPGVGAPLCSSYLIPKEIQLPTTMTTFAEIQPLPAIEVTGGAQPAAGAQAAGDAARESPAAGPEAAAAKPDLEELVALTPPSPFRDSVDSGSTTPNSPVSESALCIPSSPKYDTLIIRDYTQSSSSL
row,SMILES,EC50
1,CN1CC(C)(C)CN(c2ccc(C#Cc3ccccc3)cn2)C1=O,33 nM
2,CCN1C(=O)N(c2ccc(C#Cc3cccnc3)cn2)C2CCCCC21 (configuration not stated),69 nM

# — ChEMBL document CHEMBL3886652, “Arlethynyl derivatives” (2016)
